Like-named read-outs stand apart in the source and are kept apart here.
What was measured:
KPL-1 = assay: Panel A proliferation assay (CellTiter-Glo); HER2 2 copies, KRAS WT, PIK3CA p.E545K; type: cell-based, human; conditions: for IC50: Homo sapiens
Procedure: (§1) A total of 15 breast cancer cell lines were used in this study. […] Cells of each line were seeded into a 384-well microtiter plate at two cell densities. Low density ranges were 300-1800 cells/well, and a high density was 600 to 3600 cells/well). The plating density was determined by the rate of proliferation of the cell line in the absence of any inhibitor and varied amongst cell lines. High plating densities were double that of low density. Each cell density was plated in triplicate. […] In addition, there were 24 wells of dimethyl sulfoxide (DMSO)-treated controls at each density. After seeding, the cells were incubated at 37° C. in 5% CO2 for 24 hours. […] After a 72 h incubation, an equal volume of the CellTiter-Glo (CellTiter-Glo Luminescent Cell Viability Assay, Promega, Madison, Wis.) to that of the cell culture medium was added into each well of the plate. After the contents were mixed to induce cell lysis and stabilization, cell luminescence was recorded using a SpectraMax M5^e (Molecular Devices, Sunnyvale, Calif., USA)
(§2) Specifically, the midpoint of the growth window (the gIC50) falls half way between the number of cells at the time of compound addition (T=0) and the growth of control cells treated with DMSO. The gIC50 value serves as a metric for measuring the inhibition of proliferation in cancer cells. The curves for each seeding density for each cell line were manually inspected for both data quality and appropriateness of curve fitting. Where the starting data were poor the curve and subsequent gIC50s were excluded from further analysis. Cell line seedings were considered of poor quality when the r^2 value of the fitted curve was <0.75. Finally, where data quality permits, the Ymin values (defined as the maximum growth inhibition relative to the cell density at Time-zero) were calculated as a measure of cytotoxicity where data were of reasonable quality.

DU4475 = assay: Panel A proliferation assay (CellTiter-Glo); HER2 2 copies, KRAS WT, PIK3CA WT; type: cell-based, human; conditions: for IC50: Homo sapiens, DU-4475
Procedure: as §1, §2

MDA-MB-468 = assay: as above; type: cell-based, human; conditions: for IC50: Homo sapiens
Procedure: as §1, §2

NCI/ADR-RES = assay: as above; type: cell-based, human; conditions: for IC50: Homo sapiens
Procedure: as §1, §2

MDA-MB-231 = assay: Panel A proliferation assay (CellTiter-Glo); HER2 2 copies, KRAS p.G13D, PIK3CA WT; type: cell-based, human; conditions: for IC50: Homo sapiens
Procedure: as §1, §2

184B5 = assay: in vitro; type: cell-based
Procedure: (§3) From the stock concentration, 8 serial dilutions (1:5) were made with DMSO.
(§4) Day −1: Plate cells in 100 μl volume in 96 well plate. • Note: Cell number seeded adjusted for growth characteristics, so that at time of assay for proliferation following three-day drug treatment, the control wells should still be in log-growth phase (sub-confluent). Day 0: Drug added to plate for treatment. • A time 0 plate was processed for the proliferation assay to establish a baseline reading at time when drug was added.
(§5) LBNL are following the protocols set up by the NCI/NIH DTP Human Tumor Cell Line Screen Process (http://dtp.nci.nih.gov/branches/btb/ivclsp.html) and summarized below.
(§6) [(Ti−Tz)/(C−Tz)]×100 for concentrations for which Ti>/=Tz
(§7) [(Ti−Tz)/(C−Tz)]×100=50, • which is the drug concentration resulting in a 50% reduction in the net growth in control cells during the drug incubation. TGI: Total growth inhibition is calculated from
(§8) Ti=Tz. • The drug concentration resulting in total growth inhibition (down to the ‘time 0’ baseline). LC50: Net loss of cell growth at 50% is calculated from
(§9) [(Ti−Tz)/Tz]×100=−50. • The concentration of drug resulting in a 50% reduction in the cell number at the end of the drug treatment as compared to that at the beginning (time 0) indicating a net loss of cells following treatment.
(§10) Values are calculated for each of these three parameters if the level of activity is reached; however, if the effect is not reached or is exceeded, the value for that parameter is expressed as greater or less than the maximum or minimum concentration tested.

BT474 = assay: cells; type: cell-based
Procedure: as §3, §4, §5, §6, §7, §8, §9, §10

HCC1937 = assay: cells; type: cell-based
Procedure: as §3, §4, §5, §6, §7, §8, §9, §10

HCC202 = assay: cells; type: cell-based
Procedure: as §3, §4, §5, §6, §7, §8, §9, §10

HCC3153 = assay: cells; type: cell-based
Procedure: as §3, §4, §5, §6, §7, §8, §9, §10

T47D = assay: cells; type: cell-based
Procedure: as §3, §4, §5, §6, §7, §8, §9, §10

[1] = tested on: panel of 51 human breast cell lines; assay: Breast Cell Line Panel B proliferation assay, panel summary; type: cell-based; conditions: for IC50: 51 human breast cell lines
Procedure: as §3
Generally, about 5 μl was added to the 100 μl of cell culture during the treatment, and each dose was replicated in three wells.
as §4, §5, §6
[(Ti−Tz)/Tz]×100 for concentrations for which Ti<Tz. • C: control growth (vehicle control growth) • Tz: reading at time 0 • Ti: test growth in the presence of drug at the nine concentration levels gIC50: Growth inhibition of 50% is calculated from
as §7, §8, §9, §10

Molecule COc1ncc(-c2ccc3nccc(-c4ccnnc4)c3c2)cc1NS(=O)(=O)c1ccc(F)cc1F [Compound B, 2,4-difluoro-N-{2-(methyloxy)-5-[4-(4-pyridazinyl)-6-quinolinyl]-3-pyridinyl}benzenesulfonamide] has an IC50 (KPL-1; KPL-1, high seeding density, 72 h, read-out: High Density gIC50) of 2.7 nM, an IC50 (KPL-1; KPL-1, low seeding density, 72 h, read-out: Low Density gIC50) of 2 nM and an IC50 (KPL-1; KPL-1, mean of low and high density, read-out: Mean gIC50) of 2.35 nM. The “High Density Y-Min” value (KPL-1; KPL-1, high density, % of cells at T = 0) was 130.2%, the “Low Density Y-Min” value (KPL-1; KPL-1, low density, % of cells at T = 0) was 126.6% and the “High Density Y-Min” value (DU4475; DU4475, high density, % of cells at T = 0) was −8.4%. For the same molecule, the “Low Density Y-Min” value (DU4475; DU4475, low density, % of cells at T = 0) was 1.2%, the IC50 (DU4475; DU4475, high seeding density, 72 h, read-out: High Density gIC50) was 20.6 nM and the IC50 (DU4475; DU4475, low seeding density, 72 h, read-out: Low Density gIC50) was 3.6 nM. The IC50 (DU4475; DU4475, mean of low and high density, read-out: Mean gIC50) was 12.1 nM, the IC50 (MDA-MB-468; MDA-MB-468, high seeding density, 72 h, read-out: High Density gIC50) was 32.1 nM and the IC50 (MDA-MB-468; MDA-MB-468, low seeding density, 72 h, read-out: Low Density gIC50) was 37.2 nM. For the same molecule, the IC50 (MDA-MB-468; MDA-MB-468, mean of low and high density, read-out: Mean gIC50) was 34.9 nM, the “High Density Y-Min” value (MDA-MB-468; MDA-MB-468, high density, % of cells at T = 0) was 35.5% and the “Low Density Y-Min” value (MDA-MB-468; MDA-MB-468, low density, % of cells at T = 0) was 27.9%. For the same molecule, the IC50 (NCI/ADR-RES; high seeding density, 72 h, read-out: High Density gIC50) was 25.4 nM, the IC50 (NCI/ADR-RES; low seeding density, 72 h, read-out: Low Density gIC50) was 51.6 nM and the IC50 (NCI/ADR-RES; mean of low and high density, read-out: Mean gIC50) was 38.5 nM. The “High Density Y-Min” value (NCI/ADR-RES; high density, % of cells at T = 0) was 98.9%, the “Low Density Y-Min” value (NCI/ADR-RES; low density, % of cells at T = 0) was 518.6% and the IC50 (MDA-MB-231; MDA-MB-231, high seeding density, 72 h, read-out: High Density gIC50) was 357 nM. For the same molecule, the IC50 (MDA-MB-231; MDA-MB-231, low seeding density, 72 h, read-out: Low Density gIC50) was 97.1 nM, the IC50 (MDA-MB-231; MDA-MB-231, mean of low and high density, read-out: Mean gIC50) was 227 nM and the “High Density Y-Min” value (MDA-MB-231; MDA-MB-231, high density, % of cells at T = 0) was 357.2%. For the same molecule, the “Low Density Y-Min” value (MDA-MB-231; MDA-MB-231, low density, % of cells at T = 0) was 189.1%, the TGI (184B5; 184B5, total growth inhibition) was 46.3 nM and the IC50 (184B5; Homo sapiens, 72 h, 184B5, three-day drug treatment, read-out: gIC50) was 5.6 nM. It also gave a TGI (BT474; BT474, total growth inhibition) of 20.1 nM, an IC50 (BT474; Homo sapiens, BT-474, 72 h, BT474, three-day drug treatment, read-out: gIC50) of 4.8 nM and a CC50 (BT474; Homo sapiens, BT-474, BT474, 50% net loss of cells vs time 0, read-out: LC50 (the source's name)) of 119 nM. The TGI (HCC1937; HCC1937, total growth inhibition) was 321.7 nM, the IC50 (HCC1937; Homo sapiens, 72 h, HCC1937, three-day drug treatment, read-out: gIC50) was 25.4 nM and the CC50 (HCC1937; Homo sapiens, HCC1937, 50% net loss of cells vs time 0, read-out: LC50 (the source's name)) was at least 33000 nM. It also gave a TGI (HCC202; HCC202, total growth inhibition) of 2.6 nM, an IC50 (HCC202; Homo sapiens, 72 h, HCC202, three-day drug treatment, read-out: gIC50) of 1.1 nM and a CC50 (HCC202; Homo sapiens, HCC202, 50% net loss of cells vs time 0, read-out: LC50 (the source's name)) of 21.4 nM. For the same molecule, the TGI (HCC3153; HCC3153, total growth inhibition) was 281.8 nM, the IC50 (HCC3153; Homo sapiens, 72 h, HCC3153, three-day drug treatment, read-out: gIC50) was 38.9 nM and the CC50 (HCC3153; Homo sapiens, HCC3153, 50% net loss of cells vs time 0, read-out: LC50 (the source's name)) was at least 35500 nM. It also gave a CC50 (T47D; Homo sapiens, 50% net loss of cells vs time 0, read-out: LC50 (the source's name)) of 1000 nM, an IC50 (T47D; Homo sapiens, 72 h, three-day drug treatment, read-out: gIC50) of 3.7 nM and a TGI (T47D; total growth inhibition) of 19.1 nM. It also gave an IC50 ([1]; read-out: average gIC50) of 28.9 nM, an IC50 ([1]; read-out: gIC50s across the panel (range)) of 1.1 to 398 nM and an IC50 ([1]; read-out: overall median gIC50) of 10.4 nM. The “tumor cell lines with gIC50>30 nM” value ([1]; number of lines / lines tested) was 16/51 and the “tumor cell lines with gIC50s<3 nM” value ([1]; number of lines / lines tested) was 7/51.

Reference: patent US20130317037A1, “METHOD OF ADMINISTRATION AND TREATMENT” (GlaxoSmithKline Intellectual Property Development Limited, priority 2010, published 2013)
